Measurements from patent US11932630B2, “Heteroaryl aminopropanol derivatives” (NOVARTIS AG, priority 2021, dated 2024).
pIC50: −log10 of the molar value. Where two headings read alike, the source gives them in different places.

What was measured:
[1] = tested on: LTB4 biosynthesis in human whole blood; experiment: Human whole blood assay (hWB), inhibition of LTB4 biosynthesis; type: cell-based; conditions: read-out: hWB IC50
Method: b) Human Whole Blood Assay:
Compounds are tested in a human whole blood assay (hWB) to test their ability to inhibit LTB4 biosynthesis in a human cellular system. To this end, fresh blood is collected in heparinized vacutainers by venipuncture from volunteers. Blood is diluted 1:3 with RPM (Roswell Park Memorial Institute) medium and aliquots of 200 μL are transferred to 96-well round bottom cell culture plates. For compound testing, compounds are delivered as 10 mM stock solutions in 90% DMSO in matrix tubes. […] 4 μL of compound dilution or vehicle is added to 200 μL of blood and incubated for 4 hours at 37° C. in a humidified incubator. […] Incubation is terminated by centrifugation at 300 g for 10 min at 22° C. Plasma supernatant is taken and transferred to a 96 well plate for eicosanoid determination by ELISA (Assay designs) according to the manufacturer's protocol after 1:20 dilution in assay buffer. The data is analyzed in GraphPad Prism (GraphPad software Inc.) using non-linear regression to determine IC50 values of LTA4H inhibitors.

[2] = target: T1, human LTA4H (Homo sapiens, UniProt P09960); experiment: Human LTA4H enzyme assay (Arg-AMC substrate); type: biochemical; conditions: Arg-AMC 600 μM, 9 nM human LTA4H, 15 min pre-incubation; mean values of at least 3 measurements; read-out: ArgAMC IC50
T1 sequence (P09960 1-611): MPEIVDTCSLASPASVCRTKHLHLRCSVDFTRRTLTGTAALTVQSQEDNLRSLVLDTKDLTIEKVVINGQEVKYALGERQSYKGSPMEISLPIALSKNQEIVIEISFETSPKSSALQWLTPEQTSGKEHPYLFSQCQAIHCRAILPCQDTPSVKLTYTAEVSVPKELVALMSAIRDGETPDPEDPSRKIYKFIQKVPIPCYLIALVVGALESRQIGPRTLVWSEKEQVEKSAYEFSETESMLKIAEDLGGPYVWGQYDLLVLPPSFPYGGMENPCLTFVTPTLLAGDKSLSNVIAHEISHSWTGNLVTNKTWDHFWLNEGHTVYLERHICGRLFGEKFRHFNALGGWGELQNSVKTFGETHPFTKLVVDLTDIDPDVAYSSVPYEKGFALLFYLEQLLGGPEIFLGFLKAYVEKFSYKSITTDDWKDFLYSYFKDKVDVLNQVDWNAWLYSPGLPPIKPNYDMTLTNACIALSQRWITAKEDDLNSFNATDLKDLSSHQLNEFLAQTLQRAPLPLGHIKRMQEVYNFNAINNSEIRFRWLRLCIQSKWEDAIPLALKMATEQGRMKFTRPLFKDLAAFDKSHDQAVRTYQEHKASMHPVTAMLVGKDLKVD
Method: a) Human LTA4H Enzyme Assay:
[…] (LTA4H) catalyzes the vinylogous hydrolysis of the epoxide, leukotriene A4 (LTA4) into the pro-inflammatory mediator LTB4.
For compound testing, compounds are delivered as 10 mM stock solutions in 90% DMSO (10% water) in matrix tubes. […] A final substrate concentration of 600 μM, which is around the KM value of Arg-AMC, at a final enzyme concentration of 9 nM is chosen. Upon addition of the substrate, the plate is immediately placed in a fluorescence reader and the fluorescence is measured every 10 minutes for 60 minutes using the filter setting λ excitation=380 nm and A emission=460 nm. […] Raw data is converted to rate (moles per minute) using the AMC calibration curve calculated from the AMC standards. The data is analyzed in GraphPad Prism (GraphPad software Inc.) using non-linear regression to determine IC50 values of LTA4H inhibitors.

[3] = human blood diluted 1:3, 4 hours with compound, 10 μg/ml A23187 for 15 min, eicosanoid by ELISA

Row | Structure (SMILES) | pIC50 [1, 3] | pIC50 [2] | pIC50 ([1]; Homo sapiens)
1 | N[C@H](CO)Cn1nnc(-c2ccc(Oc3ccc(Cl)cn3)cc2)n1 [Example 34, (S)-2-Amino-3-(5-(4-((5-chloropyridin-2-yl)oxy)phenyl)-2H-tetrazol-2-yl)propan-1-ol] | 6.10 | 8.40 | 
2 | N[C@H](CO)Cn1nnc(-c2ccc(Oc3ncc(Cl)cc3F)cc2)n1 [Example 29, (S)-2-Amino-3-(5-(4-((5-chloro-3-fluoropyridin-2-yl)oxy)phenyl)-2H-tetrazol-2-yl)propan-1-ol] | 6.79 |  | 
3 | CC(O)[C@@H](N)Cc1nc(-c2ccc(Oc3ncc(Br)cc3F)cc2)no1 (mixture of isomers) [Example 18, (3S)-3-amino-4-(3-(4-((5-bromo-3-fluoropyridin-2-yl)oxy)phenyl)-1,2,4-oxadiazol-5-yl)butan-2-ol] | 6.46 | 8.21 | 
4 | N[C@H](CO)Cc1nc(-c2cccc(Oc3ccc(OC(F)F)cn3)c2)no1 [Example 03, (S)-2-amino-3-(3-(3-((5-(difluoromethoxy)pyridin-2-yl)oxy)phenyl)-1,2,4-oxadiazol-5-yl)propan-1-ol] | 7.00 |  | 
5 | N[C@H](CO)Cc1nc(-c2cccc([C@@H]3COc4cccnc4O3)c2)no1 [Example 11, (S)-2-amino-3-(3-(3-((R)-2,3-dihydro-[1,4]dioxino[2,3-b]pyridin-3-yl)phenyl)-1,2,4-oxadiazol-5-yl)propan-1-ol] | 7.36 |  | 
6 | N[C@H](CO)Cc1nc(-c2ccc(Oc3ccc(-c4ccn[nH]4)cn3)cc2)no1 [Example 13, (S)-3-(3-(4-((5-(1H-Pyrazol-5-yl)pyridin-2-yl)oxy)phenyl)-1,2,4-oxadiazol-5-yl)-2-aminopropan-1-ol] | 7.29 |  | 
7 | N[C@H](CO)Cc1nc(-c2cccc(Oc3ccc(C(F)(F)F)cn3)c2)no1 [Example 10, (S)-2-amino-3-(3-(3-((5-(trifluoromethyl)pyridin-2-yl)oxy)phenyl)-1,2,4-oxadiazol-5-yl)propan-1-ol] | 6.85 | 8.20 | 
8 | N[C@H](CO)Cc1nc(-c2cccc(Oc3ccc(-c4ccn[nH]4)cn3)c2)no1 [Example 09, (S)-3-(3-(3-((5-(1H-pyrazol-5-yl)pyridin-2-yl)oxy)phenyl)-1,2,4-oxadiazol-5-yl)-2-aminopropan-1-ol] | 7.13 | 8.60 | 
9 | N[C@@H](CO)Cn1nnc(-c2ccc(Oc3ccc(-c4ccn[nH]4)cn3)cc2)n1 [Example 19, (R)-3-(5-(4-((5-(1H-pyrazol-3-yl)pyridin-2-yl)oxy)phenyl)-2H-tetrazol-2-yl)-2-aminopropan-1-ol] | 7.19 | 8.31 | 
10 | N[C@H](CO)Cn1nnc(-c2ccc(Oc3ccc(C4CC4)cn3)cc2)n1 [Example 28, (S)-2-Amino-3-(5-(4-((5-cyclopropylpyridin-2-yl)oxy)phenyl)-2H-tetrazol-2-yl)propan-1-ol] | 6.30 | 8.21 | 
11 | N[C@H](CO)Cc1nc(-c2cccc([C@@H]3COc4ccccc4O3)c2)no1 [Example 15, (S)-2-amino-3-(3-(3-((R)-2,3-dihydrobenzo[b][1,4]dioxin-2-yl)phenyl)-1,2,4-oxadiazol-5-yl)propan-1-ol] | 7.10 | 8.54 | 
12 | N[C@H](CO)Cc1nc(-c2ccc(Oc3ccc(Cl)cn3)cc2)no1 [Example 16, (S)-2-amino-3-(3-(4-((5-chloropyridin-2-yl)oxy)phenyl)-1,2,4-oxadiazol-5-yl)propan-1-ol] | 6.64 | 8.62 | 
13 | N[C@@H](CO)Cn1nnc(-c2ccc(Oc3ccc(Cl)cn3)cc2)n1 [Example 31, (R)-2-Amino-3-(5-(4-((5-chloropyridin-2-yl)oxy)phenyl)-2H-tetrazol-2-yl)propan-1-ol] | 6.75 | 8.35 | 
14 | N[C@H](CO)Cn1nnc(-c2cccc([C@@H]3COc4cccnc4O3)c2)n1 [Example 14, (S)-2-amino-3-(5-(3-((R)-2,3-dihydro-[1,4]dioxino[2,3-b]pyridin-3-yl)phenyl)-2H-tetrazol-2-yl)propan-1-ol] | 7.41 | 8.64 | 
15 | N[C@H](CO)Cc1nnn(-c2ccc(Oc3ncc(-c4ccn[nH]4)cc3F)cc2)n1 [Example 40, (S)-2-amino-(2-(4-((3-fluoro-5-(1H-pyrazol-5-yl)pyridin-2-yl)oxy)phenyl)-2H-tetrazol-5-yl)propan-1-ol] | 7.21 | 8.59 | 
16 | N[C@H](CO)Cn1ccc(-c2ccc(Oc3ccc(-c4ccn[nH]4)cn3)cc2)n1 [Example 36] |  | 8.54 | 7.22
17 | C[C@H](Cc1ccccc1)Oc1ccc(-c2noc(C[C@H](N)CO)n2)cc1 [Example 17, (S)-2-amino-3-(3-(4-(((R)-1-phenylpropan-2-yl)oxy)phenyl)-1,2,4-oxadiazol-5-yl)propan-1-ol] | 6.53 | 7.78 | 
18 | N[C@H](CO)Cc1nc(-c2ccc(Oc3ccc(C(F)(F)F)cn3)cc2)no1 [Example 04, (S)-2-amino-3-(3-(4-((5-(trifluoromethyl)pyridin-2-yl)oxy)phenyl)-1,2,4-oxadiazol-5-yl)propan-1-ol] | 6.49 | 7.93 | 
19 | N[C@H](CO)Cc1nc(-c2cccc([C@H]3COc4ccccc4O3)c2)no1 [Example 01, (S)-2-amino-3-(3-(3-((S)-2,3-dihydrobenzo[b][1,4]dioxin-2-yl)phenyl)-1,2,4-oxadiazol-5-yl)propan-1-ol] | 7.04 |  | 

Further lines, with some results ahead:

Row | pIC50 [1, 3] | pIC50 [2] | Structure (SMILES) | pIC50 ([1]; Homo sapiens)
20 | 7.33 | 8.59 | N[C@H](CO)Cn1ccc(-c2ccc(Oc3ncc(-c4cc[nH]n4)cc3F)cc2)n1 [Example 37, (S)-2-amino-3-(3-(4-((3-fluoro-5-(1H-pyrazol-5-yl)pyridin-2-yl)oxy)phenyl)-1H-pyrazol-1-yl)propan-1-ol] | 
21 | 7.16 |  | N[C@@H](CO)Cn1nnc(-c2ccc(Oc3ncc(Cl)cc3F)cc2)n1 [Example 30, (R)-2-Amino-3-(5-(4-((5-chloro-3-fluoropyridin-2-yl)oxy)phenyl)-2H-tetrazol-2-yl)propan-1-ol] | 
22 | 6.42 |  | N[C@H](CO)Cn1ccc(-c2cccc(Oc3ncc(Cl)cc3F)c2)n1 [Example 24, (S)-2-amino-3-(3-(3-((5-chloro-3-fluoropyridin-2-yl)oxy)phenyl)-1H-pyrazol-1-yl)propan-1-ol] | 
23 |  | 6.80 | N[C@H](CO)Cn1cc(-c2ccc(Oc3ncc(Cl)cc3F)cc2)cn1 [Example 25, (S)-2-amino-3-(4-(4-((5-chloro-3-fluoropyridin-2-yl)oxy)phenyl)-1H-pyrazol-1-yl)propan-1-ol] | 
24 | 6.91 | 8.51 | N[C@H](CO)Cn1ccc(-c2ccc(Oc3ncc(-c4ccn[nH]4)cc3F)cn2)n1 [Example 21, (S)-2-amino-3-(3-(5-((3-fluoro-5-(1H-pyrazol-5-yl)pyridin-2-yl)oxy)pyridin-2-yl)-1H-pyrazol-1-yl)propan-1-ol] | 
25 | 6.67 | 8.48 | N[C@H](CO)Cn1nnc(-c2ccc(Oc3ccc(Cl)cc3)cc2)n1 [Example 27, (S)-2-Amino-3-(5-(4-(4-chlorophenoxy)phenyl)-2H-tetrazol-2-yl)propan-1-ol] | 
26 | 6.93 |  | N[C@H](CO)Cc1nc(-c2ccc(Oc3ncc(-c4ccn[nH]4)cc3F)cc2)no1 [Example 07] | 
27 |  | 8.13 | N[C@H](CO)Cn1nnc(-c2ccc(Oc3ncc(-c4ncco4)cc3F)cc2)n1 [Example 38, (2S)-2-amino-3-[5-(4-[[3-fluoro-5-(1,3-oxazol-2-yl)pyridin-2-yl]oxy]phenyl)-2H-1,2,3,4-tetrazol-2-yl]propan-1-ol] | 
28 |  | 7.80 | N[C@H](CO)Cn1nnc(-c2ccc(Oc3ccc(Cl)cc3)nc2)n1 [Example 35, (S)-2-Amino-3-(5-(6-(4-chlorophenoxy)pyridin-3-yl)-2H-tetrazol-2-yl)propan-1-01] | 
